Data: PubChem BioAssay AID192 (DTP/NCI, 2004)
Several values for one entry are separate records, joined by “and”; a condition that tells them apart may be missing. Equal entries are not always repeated. Toxic doses and inconclusive results are not listed.

Tested on: BDF1 mice, B16 melanoma ip, median survival T/C
Assay: NCI In Vivo Anticancer Drug Screen. Data for tumor model B16 Melanoma (intraperitoneal) in B6D2F1 (BDF1) mice
Conditions: endpoint: median survival time, higher = longer survival
Summary of the method: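 Each result divides a survival or tumor-size measurement in the compound-treated group by the same measurement in the vehicle group.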

[1] = dose: 100.0 mg/kg/injection, schedule: Q01DX009 (ip), vehicle: Klucel (hydroxypropylcellulose) (HPC)
[2] = dose: 200.0 mg/kg/injection, schedule: Q01DX009 (ip), vehicle: Klucel (hydroxypropylcellulose) (HPC)
[3] = dose: 400.0 mg/kg/injection, schedule: Q01DX009 (ip), vehicle: Klucel (hydroxypropylcellulose) (HPC)
[4] = dose: 3.75 mg/kg/injection, schedule: Q01DX001 (ip), vehicle: saline
[5] = dose: 30.0 mg/kg/injection, schedule: Q01DX001 (ip), vehicle: saline
[6] = dose: 60.0 mg/kg/injection, schedule: Q01DX001 (ip), vehicle: saline
[7] = dose: 12.0 mg/kg/injection, schedule: Q01DX009 (ip), vehicle: Klucel (hydroxypropylcellulose) (HPC)

For `CN(C)/C=C/C(=O)c1ccccc1[N+](=O)[O-]`, the T/C [1] was 115 % of control, the T/C (dose: 100.0 mg/kg/injection, schedule: Q04DX003 (ip), vehicle: Klucel (hydroxypropylcellulose) (HPC)) was 95 % of control and the T/C [2] was 100 % of control. The T/C (dose: 200.0 mg/kg/injection, schedule: Q04DX003 (ip), vehicle: Klucel (hydroxypropylcellulose) (HPC)) was 92 % of control, the T/C [3] was 93 % of control and the T/C (dose: 400.0 mg/kg/injection, schedule: Q04DX003 (ip), vehicle: Klucel (hydroxypropylcellulose) (HPC)) was 88 % of control.

`CS(=O)(=O)OCCN(CCOS(C)(=O)=O)c1ccc(C=Nc2ccc3oc(=O)ccc3c2)cc1` was tested, and the T/C (dose: 6.25 mg/kg/injection, schedule: Q01DX009 (ip), vehicle: Klucel (hydroxypropylcellulose) (HPC)) was 120 % of control, the T/C (dose: 12.5 mg/kg/injection, schedule: Q01DX009 (ip), vehicle: Klucel (hydroxypropylcellulose) (HPC)) was 118 % of control and the T/C (dose: 50.0 mg/kg/injection, schedule: Q01DX009 (ip), vehicle: Klucel (hydroxypropylcellulose) (HPC)) was 118 % of control.

With `O=NN(CCCl)C(=O)NCCCl` the T/C (dose: 0.25 mg/kg/injection, schedule: Q01DX009 (ip), vehicle: saline with Tween-80) was 102 % of control, the T/C (dose: 0.5 mg/kg/injection, schedule: Q01DX009 (ip), vehicle: saline + alcohol) was 105 % of control and 110 % of control and the T/C (dose: 0.5 mg/kg/injection, schedule: Q01DX009 (ip), vehicle: saline with Tween-80) was 109 % of control. For the same compound, the T/C (dose: 1.0 mg/kg/injection, schedule: Q01DX009 (ip), vehicle: saline + alcohol) was 108 % of control and 115 % of control, the T/C (dose: 1.0 mg/kg/injection, schedule: Q01DX009 (ip), vehicle: saline with Tween-80) was 110 % of control and 113 % of control (2×) and the T/C (dose: 1.5 mg/kg/injection, schedule: Q01DX009 (ip), vehicle: alcohol) was 113 % of control and 116 % of control. For the same compound, the T/C (dose: 1.5 mg/kg/injection, schedule: Q01DX009 (ip), vehicle: other) was 95 % of control and 104 % of control, the T/C (dose: 1.87 mg/kg/injection, schedule: Q01DX009 (ip), vehicle: saline) was 115 % of control and the T/C (dose: 1.9 mg/kg/injection, schedule: Q01DX001 (ip), vehicle: saline) was 115 % of control. For the same compound, the T/C (dose: 2.0 mg/kg/injection, schedule: Q01DX009 (ip), vehicle: saline + alcohol) was 109 % of control and 118 % of control, the T/C (dose: 2.0 mg/kg/injection, schedule: Q01DX009 (ip), vehicle: saline with Tween-80) was 109 % of control and 115 % of control and 122 % of control and the T/C (dose: 2.0 mg/kg/injection, schedule: Q04DX003 (ip), vehicle: saline + alcohol) was 118 % of control. The T/C (dose: 3.0 mg/kg/injection, schedule: Q01DX009 (ip), vehicle: other) was 105 % of control and 114 % of control, the T/C [4] was 115 % of control and the T/C (dose: 4.0 mg/kg/injection, schedule: Q01DX009 (ip), vehicle: saline with Tween-80) was 152 % of control. For the same compound, the T/C (dose: 5.0 mg/kg/injection, schedule: Q01DX001 (ip), vehicle: saline + alcohol) was 111 % of control and 122 % of control, the T/C (dose: 5.0 mg/kg/injection, schedule: Q01DX009 (ip), vehicle: other) was 190 % of control and the T/C (dose: 5.0 mg/kg/injection, schedule: Q04DX003 (ip), vehicle: saline + alcohol) was 113 % of control and 115 % of control. The T/C (dose: 6.0 mg/kg/injection, schedule: Q01DX009 (ip), vehicle: alcohol) was 160 % of control and 188 % of control, the T/C (dose: 6.0 mg/kg/injection, schedule: Q01DX009 (ip), vehicle: other) was 171 % of control and 179 % of control and the T/C (dose: 7.5 mg/kg/injection, schedule: Q01DX001 (ip), vehicle: saline) was 119 % of control. For the same compound, the T/C (dose: 7.5 mg/kg/injection, schedule: Q01DX009 (ip), vehicle: saline) was 192 % of control, the T/C (dose: 8.0 mg/kg/injection, schedule: Q01DX001 (ip), vehicle: saline + alcohol) was 107 % of control and the T/C (dose: 8.0 mg/kg/injection, schedule: Q01DX009 (ip), vehicle: saline + alcohol) was 207 % of control and 221 % of control. The T/C (dose: 8.0 mg/kg/injection, schedule: Q01DX009 (ip), vehicle: saline with Tween-80) was 165 % of control and 168 % of control and 183 % of control, the T/C (dose: 8.0 mg/kg/injection, schedule: Q04DX003 (ip), vehicle: saline + alcohol) was 111 % of control and the T/C (dose: 10.0 mg/kg/injection, schedule: Q01DX001 (ip), vehicle: saline) was 121 % of control. The T/C (dose: 12.0 mg/kg/injection, schedule: Q01DX009 (ip), vehicle: other) was 153 % of control, the T/C (dose: 15.0 mg/kg/injection, schedule: Q01DX009 (ip), vehicle: saline) was 200 % of control and the T/C (dose: 16.0 mg/kg/injection, schedule: Q01DX009 (ip), vehicle: saline + alcohol) was 53 % of control and 65 % of control. For the same compound, the T/C (dose: 16.0 mg/kg/injection, schedule: Q04DX003 (ip), vehicle: saline + alcohol) was 186 % of control, the T/C (dose: 20.0 mg/kg/injection, schedule: Q01DX001 (ip), vehicle: saline) was 154 % of control and the T/C (dose: 20.0 mg/kg/injection, schedule: Q04DX003 (ip), vehicle: saline + alcohol) was 157 % of control and 210 % of control and 229 % of control. The T/C (dose: 30.0 mg/kg/injection, schedule: Q01DX001 (ip), vehicle: saline + alcohol) was 154 % of control, the T/C [5] was 189 % of control and the T/C (dose: 32.0 mg/kg/injection, schedule: Q01DX009 (ip), vehicle: saline + alcohol) was 40 % of control and 44 % of control. For the same compound, the T/C (dose: 32.0 mg/kg/injection, schedule: Q04DX003 (ip), vehicle: saline + alcohol) was 248 % of control, the T/C (dose: 40.0 mg/kg/injection, schedule: Q01DX001 (ip), vehicle: saline) was 207 % of control and the T/C (dose: 40.0 mg/kg/injection, schedule: Q04DX003 (ip), vehicle: saline + alcohol) was 62 % of control and 80 % of control. The T/C [6] was 106 % of control, the T/C (dose: 64.0 mg/kg/injection, schedule: Q01DX001 (ip), vehicle: saline + alcohol) was 42 % of control and the T/C (dose: 64.0 mg/kg/injection, schedule: Q01DX009 (ip), vehicle: saline + alcohol) was 28 % of control and 30 % of control. For the same compound, the T/C (dose: 64.0 mg/kg/injection, schedule: Q04DX003 (ip), vehicle: saline + alcohol) was 43 % of control, the T/C (dose: 128.0 mg/kg/injection, schedule: Q04DX003 (ip), vehicle: saline + alcohol) was 37 % of control and the T/C (dose: 256.0 mg/kg/injection, schedule: Q04DX003 (ip), vehicle: saline + alcohol) was 20 % of control.

For `O=NN(CCF)C(=O)NCCO`, the T/C (dose: 1.88 mg/kg/injection, schedule: Q01DX001 (ip), vehicle: saline) was 115 % of control, the T/C [4] was 114 % of control and the T/C (dose: 15.0 mg/kg/injection, schedule: Q01DX001 (ip), vehicle: saline) was 172 % of control. For the same compound, the T/C [5] was 231 % of control and the T/C [6] was 212 % of control.

With `CC/C=C/c1cccc(OC)c1` the T/C [1] was 96 % of control, the T/C [2] was 96 % of control and the T/C [3] was 92 % of control.

`CCS(=O)(=O)Nc1cccc(Nc2c3cccc(C)c3nc3c(C)cccc23)c1OC` was tested, and the T/C (dose: 6.25 mg/kg/injection, schedule: Q01DX009 (ip), vehicle: saline with Tween-80) was 185 % of control, the T/C (dose: 12.5 mg/kg/injection, schedule: Q01DX009 (ip), vehicle: saline with Tween-80) was 203 % of control and the T/C (dose: 25.0 mg/kg/injection, schedule: Q01DX009 (ip), vehicle: saline with Tween-80) was 87 % of control.

In the case of `C[CH2][Pb]([CH2]C)([CH2]C)[O]C(=O)c1ccc(N)cc1`, the T/C (dose: 0.75 mg/kg/injection, schedule: Q01DX009 (ip), vehicle: Klucel (hydroxypropylcellulose) (HPC)) is reported as 111 % of control, the T/C (dose: 1.5 mg/kg/injection, schedule: Q01DX009 (ip), vehicle: Klucel (hydroxypropylcellulose) (HPC)) is reported as 111 % of control and the T/C (dose: 3.0 mg/kg/injection, schedule: Q01DX009 (ip), vehicle: Klucel (hydroxypropylcellulose) (HPC)) is reported as 108 % of control. The T/C (dose: 6.0 mg/kg/injection, schedule: Q01DX009 (ip), vehicle: Klucel (hydroxypropylcellulose) (HPC)) was 111 % of control and the T/C [7] was 105 % of control.

In the case of `O=c1[nH]c(=O)c2nc(-c3cccnc3)cnc2[nH]1`, the T/C (dose: 12.5 mg/kg/injection, schedule: Q01DX009 (ip), vehicle: saline) is reported as 104 % of control, the T/C (dose: 25.0 mg/kg/injection, schedule: Q01DX009 (ip), vehicle: saline) is reported as 93 % of control and the T/C (dose: 50.0 mg/kg/injection, schedule: Q01DX009 (ip), vehicle: saline) is reported as 97 % of control. For the same compound, the T/C (dose: 100.0 mg/kg/injection, schedule: Q01DX009 (ip), vehicle: saline) was 89 % of control.

With `O=C(COc1cc(Cl)c(Cl)cc1Cl)OCCOc1cc(Cl)c(Cl)cc1Cl` the T/C [7] was 98 % of control, the T/C (dose: 24.0 mg/kg/injection, schedule: Q01DX009 (ip), vehicle: Klucel (hydroxypropylcellulose) (HPC)) was 98 % of control and the T/C (dose: 48.0 mg/kg/injection, schedule: Q01DX009 (ip), vehicle: Klucel (hydroxypropylcellulose) (HPC)) was 91 % of control. For the same compound, the T/C (dose: 96.0 mg/kg/injection, schedule: Q01DX009 (ip), vehicle: Klucel (hydroxypropylcellulose) (HPC)) was 93 % of control.

In the case of `CC#CS(=O)(=O)C(C)(C)C`, the T/C (dose: 50.0 mg/kg/injection, schedule: Q04DX003 (ip), vehicle: saline) is reported as 104 % of control, the T/C (dose: 100.0 mg/kg/injection, schedule: Q04DX003 (ip), vehicle: saline) is reported as 106 % of control and the T/C (dose: 200.0 mg/kg/injection, schedule: Q04DX003 (ip), vehicle: saline) is reported as 105 % of control.
